# ChEMBL document CHEMBL4665663, “Anti-atherosclerosis effect of HS donors based on nicotinic acid and chlorfibrate structures” (Bioorg Med Chem, 2019)
# Calls of active or inactive are those of the source. The calls are words filed in the database; no cut-off is given here.
# What was measured:
# [1] = system: WI-38; test: Cytotoxicity against human WI38 cells assessed as reduction in cell viability after 48 hrs by MTT assay; format: cell-based; conditions: WI-38, 48 h
# [2] = system: RAW264.7; test: Cytotoxicity against mouse RAW264.7 cells assessed as reduction in cell viability after 48 hrs by MTT assay; format: cell-based; conditions: RAW264.7, 48 h
# [3] = system: HUVEC; test: Cytotoxicity against human HUVEC cells assessed as reduction in cell viability after 48 hrs by MTT assay; format: cell-based
# [4] = system: HUVEC; test: Cytoprotective activity against ox-LDL induced cell damage in human HUVEC cells assessed as increase in cell viability at 50 to 100 uM preincubated for 10 mins followed by ox-LDL stimulation measured after 24 hrs by MTT assay; format: functional, cell-based; conditions: dose microM 50-100, time 10.0 min
# [5] = system: HUVEC; test: Cytotoxicity against human HUVEC cells assessed as reduction in cell viability at 10 to 100 uM by MTT assay; format: cell-based; conditions: dose 10-100 µM
# [6] = system: H9c2; test: Cytotoxicity against rat H9c2 cells assessed as reduction in cell viability after 48 hrs by MTT assay; format: cell-based; conditions: H9c2, 48 h
# [7] = Prodrug release in phosphate buffer containing L-cysteine assessed as H2S release by measuring H2S releasing half-life at 60 uM by methylene blue method; format: ADME
# [8] = system: HUVEC; test: Anti-atherosclerotic activity against ox-LDL induced apoptosis in human HUVEC cells assessed as increase in bcl-2 expression at 50 uM preincubated for 10 mins followed by ox-LDL stimulation and measured after 24 hrs by ELISA; format: functional
# [9] = system: HUVEC; test: Anti-atherosclerotic activity against ox-LDL induced cell damage in human HUVEC cells assessed as reduction in nuclear pyknosis and apoptotic bodies formation preincubated for 10 mins followed by ox-LDL stimulation and measured after 24 hrs by Hoechst 33342 staining based fluorescence microscopy; format: functional
# [10] = system: HUVEC; test: Anti-atherosclerotic activity against ox-LDL induced apoptosis in human HUVEC cells assessed as reduction in Bax expression at 10 to 50 uM preincubated for 10 mins followed by ox-LDL stimulation and measured after 24 hrs by ELISA; format: functional, cell-based; conditions: dose microM 10-50, time 10.0 min
# [11] = system: RAW264.7; test: Antioxidant activity in mouse RAW264.7 cells assessed as reduction in ox-LDL induced oxidative stress by measuring decrease in MDA level at 50 uM preincubated for 10 mins followed by ox-LDL stimulation and measured after 24 hrs relative to control; format: functional; conditions: RAW264.7, 10 min
# [12] = system: RAW264.7; test: Anti-atherosclerotic activity in mouse RAW264.7 cells assessed as decrease in ox-LDL induced intracellular lipid accumulation by measuring reduction in CE/TC ratio at 50 uM preincubated for 10 mins followed by ox-LDL stimulation and measured after 24 hrs by colorimetric method relative to control; format: functional; conditions: RAW264.7, 10 min
# [13] = system: HUVEC; test: Cytoprotective activity against ox-LDL induced cell damage in human HUVEC cells assessed as increase in cell viability at 50 uM preincubated for 10 mins followed by ox-LDL stimulation measured after 24 hrs by MTT assay; format: functional, cell-based
# [14] = system: RAW264.7; test: Antioxidant activity in mouse RAW264.7 cells assessed as reduction in ox-LDL-induced oxidative stress by measuring increase in SOD level at 50 uM preincubated for 10 mins followed by ox-LDL stimulation and measured after 24 hrs relative to control; format: functional; design: scale not given: the % may be the effect or the level left
# [15] = system: RAW264.7; test: Anti-atherosclerotic activity in mouse RAW264.7 cells assessed as decrease in ox-LDL induced AKT protein expression at 10 to 50 uM preincubated for 10 mins followed by ox-LDL stimulation and measured after 24 hrs by Western blot analysis; format: functional, cell-based; conditions: dose microM 10-50, time 10.0 min
# [16] = system: RAW264.7; test: Anti-atherosclerotic activity in mouse RAW264.7 cells assessed as decrease in ox-LDL induced intracellular lipid accumulation by measuring reduction in free cholesterol level at 10 to 50 uM preincubated for 10 mins followed by ox-LDL stimulation and measured after 24 hrs by colorimetric method; format: functional, cell-based; conditions: dose microM 10-50, time 10.0 min
# [17] = system: RAW264.7; test: Anti-atherosclerotic activity in mouse RAW264.7 cells assessed as decrease in ox-LDL induced PI3K protein expression at 10 to 50 uM preincubated for 10 mins followed by ox-LDL stimulation and measured after 24 hrs by Western blot analysis; format: functional, cell-based; conditions: dose microM 10-50, time 10.0 min
# [18] = system: RAW264.7; test: Anti-inflammatory activity in mouse RAW264.7 cells assessed as decrease in ox-LDL induced inflammatory reaction by measuring decrease in TNF-alpha production preincubated for 10 mins followed by ox-LDL stimulation and measured after 24 hrs; format: functional, cell-based; conditions: dose microM 10-50, time 10.0 min
# [19] = system: RAW264.7; test: Antioxidant activity in mouse RAW264.7 cells assessed as reduction in ox-LDL induced ROS accumulation at 10 to 50 uM preincubated for 10 mins followed by ox-LDL stimulation and measured after 24 hrs by DCFH-DA staining based fluorescence microscopic analysis; format: functional, cell-based; conditions: dose microM 10-50, time 10.0 min
# [20] = system: RAW264.7; test: Inhibition of macrophage foam cell formation in mouse RAW264.7 cells assessed as reduction in ox-LDL induced red lipid droplets formation preincubated for 10 mins followed by ox-LDL stimulation and measured after 24 hrs by oil red O staining based inverted microscopy analysis; format: functional; conditions: dose microM 10-50, time 10.0 min
# [21] = system: RAW264.7; test: Inhibition of macrophage foam cell formation in mouse RAW264.7 cells assessed as reduction in ox-LDL induced red lipid droplets formation at 50 uM preincubated for 10 mins followed by ox-LDL stimulation and measured after 24 hrs by oil red O staining based inverted microscopy analysis; format: functional
# [22] = system: RAW264.7; test: Anti-atherosclerotic activity in mouse RAW264.7 cells assessed as decrease in ox-LDL induced NFkappaB protein expression at 10 to 50 uM preincubated for 10 mins followed by ox-LDL stimulation and measured after 24 hrs by Western blot analysis; format: functional, cell-based; conditions: dose microM 10-50, time 10.0 min
# [23] = system: RAW264.7; test: Anti-atherosclerotic activity in mouse RAW264.7 cells assessed as decrease in ox-LDL induced intracellular lipid accumulation by measuring reduction in total cholesterol level at 10 to 50 uM preincubated for 10 mins followed by ox-LDL stimulation and measured after 24 hrs by colorimetric method; format: functional, cell-based; conditions: dose microM 10-50, time 10.0 min
# [24] = system: HUVEC; test: Anti-atherosclerotic activity against ox-LDL induced cell damage in human HUVEC cells assessed as reduction in early apoptotic cells by measuring increase in mitochondrial membrane potential preincubated for 10 mins followed by ox-LDL stimulation and measured after 24 hrs by JC-1 staining based fluorescence microscopic analysis; format: functional
# [25] = system: HUVEC; test: Cytoprotective activity against ox-LDL induced cell damage in human HUVEC cells assessed as cell viability at 100 uM preincubated for 10 mins followed by ox-LDL stimulation measured after 24 hrs by MTT assay (reference value: 73.1%); format: functional; conditions: read-out: Activity
# [26] = system: HUVEC; test: Anti-atherosclerotic activity against ox-LDL induced cell damage in human HUVEC cells assessed as reduction in late apoptotic and death cells preincubated for 10 mins followed by ox-LDL stimulation and measured after 24 hrs by PI staining based fluorescence microscopic analysis; format: functional
# [27] = system: RAW264.7; test: Anti-inflammatory activity in mouse RAW264.7 cells assessed as decrease in ox-LDL induced inflammatory reaction by measuring increase in IL-10 production preincubated for 10 mins followed by ox-LDL stimulation and measured after 24 hrs; format: functional, cell-based; conditions: dose microM 10-50, time 10.0 min
# [28] = system: HUVEC; test: Anti-atherosclerotic activity against ox-LDL induced apoptosis in human HUVEC cells assessed as reduction in caspase-3 expression at 10 to 50 uM preincubated for 10 mins followed by ox-LDL stimulation and measured after 24 hrs by ELISA; format: functional, cell-based; conditions: dose microM 10-50, time 10.0 min
compound,measurement,setting,value
O=C(NCCOC(=S)Nc1ccc([N+](=O)[O-])cc1Cl)c1cccnc1,IC50,[1],> 800 µM
same,IC50,[2],> 800 µM
same,IC50,[3],701 µM
same,Activity,[4],Active
same,Activity,[5],Non-Toxic
same,IC50,[6],> 800 µM
same,t1/2,[7],2.1 min
CC(C)(Oc1ccc(Cl)cc1)C(=O)NCCOC(=S)Nc1ccc(F)cc1,IC50,[1],> 800 µM
same,IC50,[2],> 800 µM
same,IC50,[3],773 µM
same,IC50,[6],> 800 µM
same,t1/2,[7],1.2 min
O=C(Oc1ccc(-c2cc(=S)ss2)cc1)c1cccnc1,IC50,[1],734 µM
same,IC50,[2],> 800 µM
same,IC50,[3],562 µM
same,IC50,[6],627 µM
same,t1/2,[7],3.3 min
Cc1ccc(NC(=S)OCCNC(=O)C(C)(C)Oc2ccc(Cl)cc2)cc1,IC50,[1],> 800 µM
same,IC50,[2],> 800 µM
same,IC50,[3],661 µM
same,IC50,[6],771 µM
same,t1/2,[7],1 min
O=C(NCCOC(=S)Nc1ccccc1)c1cccnc1,IC50,[1],> 800 µM
same,IC50,[2],> 800 µM
same,IC50,[3],724 µM
same,IC50,[6],> 800 µM
same,t1/2,[7],1.2 min
Cc1cnc(C(=O)OCCCOC(=O)CCCCC2CCSS2)c[n+]1[O-] (stereo unspecified),IC50,[1],> 800 µM
same,IC50,[2],> 800 µM
same,IC50,[3],> 800 µM
same,IC50,[6],> 800 µM
same,t1/2,[7],19.8 min
CC(C)(Oc1ccc(Cl)cc1)C(=O)NCCOC(=S)Nc1ccc([N+](=O)[O-])cc1Cl,IC50,[1],> 800 µM
same,IC50,[2],> 800 µM
same,IC50,[3],729 µM
same,Activity,[4],Active
same,Activity,[5],Non-Toxic
same,IC50,[6],> 800 µM
same,t1/2,[7],1.7 min
O=C(CCCCC1CCSS1)OCCCOC(=O)c1cccnc1 (stereo unspecified),Activity,[8],32.7%
same,Activity,[9],Active
same,Activity,[10],Active
same,inhibition at 50 µM,[11],47%
same,inhibition at 50 µM,[12],32.4%
same,Activity,[13],Active
same,Activity,[14],48.3%
same,IC50,[1],> 800 µM
same,Activity,[15],Active
same,Activity,[16],Active
same,IC50,[2],> 800 µM
same,Activity,[17],Active
same,Activity,[18],Dose-dependent effect
same,Activity,[19],Active
same,IC50,[3],> 800 µM
same,inhibition,[20],Dose-dependent effect
same,inhibition,[21],Active
same,Activity,[22],Active
same,Activity,[5],Non-Toxic
same,Activity,[23],Active
same,IC50,[6],> 800 µM
same,t1/2,[7],15.3 min
same,Activity,[24],Active
same,viability at 100 µM,[25],85.9%
same,Activity,[26],Active
same,Activity,[27],Dose-dependent effect
same,Activity,[28],Active
COc1ccc(NC(=S)OCCNC(=O)C(C)(C)Oc2ccc(Cl)cc2)cc1,IC50,[1],780 µM
same,IC50,[2],> 800 µM
same,IC50,[3],616 µM
same,IC50,[6],747 µM
same,t1/2,[7],0.9 min
